In PMC4171097, “Severe MgADP Inhibition of Bacillus subtilis F1-ATPase Is Not Due to the Absence of Nucleotide Binding to the Noncatalytic Nucleotide Binding Sites” (PLoS ONE, 2014) one finds Kd data, which are given here for 1 compound.

The target in the test is T1, α3β3γ complex of BF1 (F1-ATPase from Bacillus subtilis) (Bacillus subtilis, UniProt P37808+P37809, P37808:R354W).
T1 construct: gene atpA; recombinant alpha3beta3gamma subcomplex of F1-ATPase (no delta, no epsilon), from plasmid pET21-BF1; with ATP synthase gamma chain
T1 sequence (P37809 whole entry): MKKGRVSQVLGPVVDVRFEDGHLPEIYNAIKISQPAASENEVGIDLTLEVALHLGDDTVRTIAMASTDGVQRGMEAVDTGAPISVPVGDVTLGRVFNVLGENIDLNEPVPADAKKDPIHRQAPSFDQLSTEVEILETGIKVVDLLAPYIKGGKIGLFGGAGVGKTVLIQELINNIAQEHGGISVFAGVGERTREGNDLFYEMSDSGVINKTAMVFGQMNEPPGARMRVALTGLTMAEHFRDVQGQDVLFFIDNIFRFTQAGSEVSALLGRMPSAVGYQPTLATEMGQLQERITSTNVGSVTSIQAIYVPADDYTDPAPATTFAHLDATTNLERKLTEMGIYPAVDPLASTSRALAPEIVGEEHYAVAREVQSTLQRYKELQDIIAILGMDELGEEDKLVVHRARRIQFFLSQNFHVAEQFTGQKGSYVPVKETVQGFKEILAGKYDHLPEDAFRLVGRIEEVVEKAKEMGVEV
T1 sequence (P37810 whole entry, further chain): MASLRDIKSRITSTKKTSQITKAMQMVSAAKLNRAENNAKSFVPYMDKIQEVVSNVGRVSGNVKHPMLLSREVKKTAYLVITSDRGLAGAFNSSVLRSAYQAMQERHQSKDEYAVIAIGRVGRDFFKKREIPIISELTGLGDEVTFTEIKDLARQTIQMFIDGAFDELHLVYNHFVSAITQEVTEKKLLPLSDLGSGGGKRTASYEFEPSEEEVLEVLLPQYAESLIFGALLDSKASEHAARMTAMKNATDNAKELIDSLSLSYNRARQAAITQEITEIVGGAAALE
T1 sequence (P37808 2-502 R354W): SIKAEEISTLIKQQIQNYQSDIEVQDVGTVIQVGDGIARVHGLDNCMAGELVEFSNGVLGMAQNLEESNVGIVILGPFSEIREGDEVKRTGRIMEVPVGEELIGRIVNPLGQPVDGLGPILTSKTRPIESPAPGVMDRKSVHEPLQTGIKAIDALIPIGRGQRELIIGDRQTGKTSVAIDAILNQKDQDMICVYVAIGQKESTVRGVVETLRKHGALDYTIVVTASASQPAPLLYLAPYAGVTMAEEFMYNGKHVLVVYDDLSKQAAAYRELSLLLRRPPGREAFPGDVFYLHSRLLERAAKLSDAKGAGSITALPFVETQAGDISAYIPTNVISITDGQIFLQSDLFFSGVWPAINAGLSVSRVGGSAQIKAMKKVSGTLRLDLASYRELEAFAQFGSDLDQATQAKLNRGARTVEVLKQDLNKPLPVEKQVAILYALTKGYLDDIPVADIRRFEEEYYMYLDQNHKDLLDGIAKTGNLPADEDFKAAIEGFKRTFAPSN
The experiment in a line: tryptophan fluorescence quenching titration (ex […] nm, em […] nm), simple binding equation. To be noted: read-out: apparent Kd.

On to `Nc1ncnc2c1ncn2[C@@H]1O[C@H](COP(=O)(O)OP(=O)(O)OP(=O)(O)O)[C@@H](O)[C@H]1O` [ATP], for which the Kd was determined as 34.4 ± 2.9 µM.
